The values that follow come from ChEMBL document CHEMBL1139171, “Synthesis and antifungal activity of 6-arylamino-phthalazine-5,8-diones and 6,7-bis(arylthio)-phthalazine-5,8-diones” (2007).

Converted amounts (≈) assume the structure as drawn.

Assay type in all cases: functional
The test system of assay [1] is Aspergillus flavus. Kind of assay: Antifungal activity against Aspergillus flavus KCCM 11899 after 2 days by broth dilution method. (In general: Broth dilution looks for growth in wells or tubes with falling amounts of substance.)
The subject of assay [2] is Aspergillus niger. The experiment in a line: Antifungal activity against Aspergillus niger KCTC 1231 after 2 days by broth dilution method.
Assay [3] concerns Pichia kudriavzevii. The experiment in a line: Antifungal activity against Candida krusei Berkout KCCM 11655 after 1 day by broth dilution method. The note with it: KCCM 11655, 24 h.
The test system of assay [4] is Candida tropicalis. The experiment in a line: Antifungal activity against Candida tropicalis Berkout KCCM 50662 after 1 day by broth dilution method.
Assay [5] deals with Candida albicans. The experiment in a line: Antifungal activity against Candida albicans Berkout KCCM 50235 after 1 day by broth dilution method. As to conditions: KCCM 50235, 24 h.
In assay [6] the test system is Cryptococcus neoformans. Kind of assay: Antifungal activity against Cryptococcus neoformans KCCM 50564 after 1 day by broth dilution method. As to conditions: KCCM 50564, 24 h.
Where [7] appears, read: Aspergillus flavus, KCCM 11899, 48 h, read-out: MIC.
Where [8] appears, read: Aspergillus niger, KCTC 1231, 48 h, read-out: MIC.
Setting [9] is: Candida tropicalis, KCCM 50662, 24 h, read-out: MIC.

A word on the MIC: it is the lowest concentration found to suppress growth. With `O=C1C(Cl)=C(Nc2ccccc2)C(=O)c2cnncc21`, the MIC came to 25 µg/mL (≈ 87.5 µM) in assay [1] (setting [7]); 100 µg/mL (≈ 350 µM) in assay [2] (setting [8]); 25 µg/mL (≈ 87.5 µM) in assay [3]; 25 µg/mL (≈ 87.5 µM) in assay [4] (setting [9]); 50 µg/mL (≈ 175 µM) in assay [5]; 3.2 µg/mL (≈ 11.2 µM) in assay [6].
As for `O=C1C(Cl)=C(Nc2ccc(F)cc2)C(=O)c2cnncc21`, the MIC in assay [1] (setting [7]) is greater than 100 µg/mL; in assay [2] (setting [8]) it was greater than 100 µg/mL; in assay [3], 50 µg/mL (≈ 165 µM); in assay [4] (setting [9]) it was 50 µg/mL (≈ 165 µM); in assay [5] it was 50 µg/mL (≈ 165 µM); in assay [6], 6.3 µg/mL (≈ 20.7 µM).
For the compound `O=C1C(Cl)=C(Nc2ccc(Cl)cc2)C(=O)c2cnncc21`, the MIC in assay [1] (setting [7]) was greater than 100 µg/mL; in assay [2] (setting [8]), greater than 100 µg/mL; in assay [3], 6.3 µg/mL (≈ 19.7 µM); in assay [4] (setting [9]) it was 12.5 µg/mL (≈ 39 µM); in assay [5] it was 12.5 µg/mL (≈ 39 µM); in assay [6] it was 100 µg/mL (≈ 312 µM).
With `O=C1C(Sc2ccc(F)c(F)c2)=C(Sc2ccc(F)c(F)c2)C(=O)c2cnncc21`, the MIC in assay [1] (setting [7]) is 25 µg/mL (≈ 55.8 µM); in assay [2] (setting [8]), 3.2 µg/mL (≈ 7.14 µM); in assay [3], greater than 100 µg/mL; in assay [4] (setting [9]) it was 12.5 µg/mL (≈ 27.9 µM); in assay [5], 3.2 µg/mL (≈ 7.14 µM); in assay [6], 100 µg/mL (≈ 223 µM).
Take `O=C1C(Sc2ccc(F)cc2)=C(Sc2ccc(F)cc2)C(=O)c2cnncc21`: the MIC in assay [1] (setting [7]) was greater than 100 µg/mL; in assay [2] (setting [8]) it was 12.5 µg/mL (≈ 30.3 µM); in assay [3] it was 100 µg/mL (≈ 242 µM); in assay [4] (setting [9]), 6.3 µg/mL (≈ 15.3 µM); in assay [5] it was 6.3 µg/mL (≈ 15.3 µM); in assay [6], greater than 100 µg/mL.
Turning to `COc1ccc(SC2=C(Sc3ccc(OC)cc3)C(=O)c3cnncc3C2=O)cc1`, the MIC in assay [1] (setting [7]) is greater than 100 µg/mL; in assay [2] (setting [8]) it was 12.5 µg/mL (≈ 28.6 µM); in assay [3], 100 µg/mL (≈ 229 µM); in assay [4] (setting [9]), 100 µg/mL (≈ 229 µM); in assay [5], 25 µg/mL (≈ 57.3 µM); in assay [6] it was greater than 100 µg/mL.
For `O=C1C(Cl)=C(Nc2ccc(I)cc2)C(=O)c2cnncc21`, the MIC in assay [1] (setting [7]) is 50 µg/mL (≈ 121 µM); in assay [2] (setting [8]), greater than 100 µg/mL; in assay [3], 12.5 µg/mL (≈ 30.4 µM); in assay [4] (setting [9]), 12.5 µg/mL (≈ 30.4 µM); in assay [5], 12.5 µg/mL (≈ 30.4 µM); in assay [6], 100 µg/mL (≈ 243 µM).
As for `Nc1cccc2cnncc12`, the MIC in assay [1] (setting [7]) is 100 µg/mL (≈ 689 µM); in assay [2] (setting [8]), greater than 100 µg/mL; in assay [3], 100 µg/mL (≈ 689 µM); in assay [4] (setting [9]), greater than 100 µg/mL; in assay [5], greater than 100 µg/mL; in assay [6] it was 25 µg/mL (≈ 172 µM).
With `O=C1C=C(Nc2ccc(Br)cc2)C(=O)c2cnncc21`, the MIC was found to be 50 µg/mL (≈ 151 µM) in assay [1] (setting [7]); 50 µg/mL (≈ 151 µM) in assay [2] (setting [8]); 12.5 µg/mL (≈ 37.9 µM) in assay [3]; 3.2 µg/mL (≈ 9.69 µM) in assay [4] (setting [9]); 12.5 µg/mL (≈ 37.9 µM) in assay [5]; 12.5 µg/mL (≈ 37.9 µM) in assay [6].
With `O=C1C(Sc2ccc(Br)cc2)=C(Sc2ccc(Br)cc2)C(=O)c2cnncc21`, the MIC in assay [1] (setting [7]) is 50 µg/mL (≈ 93.6 µM); in assay [2] (setting [8]), greater than 100 µg/mL; in assay [3], greater than 100 µg/mL; in assay [4] (setting [9]) it was 50 µg/mL (≈ 93.6 µM); in assay [5] it was 50 µg/mL (≈ 93.6 µM); in assay [6] it was greater than 100 µg/mL.
As to `O=C1C(Cl)=C(Nc2ccc(F)c(F)c2)C(=O)c2cnncc21`, the MIC in assay [1] (setting [7]) was 100 µg/mL (≈ 311 µM); in assay [2] (setting [8]) it was 100 µg/mL (≈ 311 µM); in assay [3] it was greater than 100 µg/mL; in assay [4] (setting [9]) it was 3.2 µg/mL (≈ 9.95 µM); in assay [5] it was 25 µg/mL (≈ 77.7 µM); in assay [6], 50 µg/mL (≈ 155 µM).
With `O=C1C(Cl)=C(Nc2cccc(C(F)(F)F)c2)C(=O)c2cnncc21`, the MIC in assay [1] (setting [7]) was 50 µg/mL (≈ 141 µM); in assay [2] (setting [8]), 50 µg/mL (≈ 141 µM); in assay [3] it was 100 µg/mL (≈ 283 µM); in assay [4] (setting [9]), 12.5 µg/mL (≈ 35.3 µM); in assay [5] it was 25 µg/mL (≈ 70.7 µM); in assay [6], 50 µg/mL (≈ 141 µM).
As to `Cc1ccc(NC2=CC(=O)c3cnncc3C2=O)cc1C`, the MIC in assay [1] (setting [7]) is greater than 100 µg/mL; in assay [2] (setting [8]) it was greater than 100 µg/mL; in assay [3], 50 µg/mL (≈ 179 µM); in assay [4] (setting [9]) it was 100 µg/mL (≈ 358 µM); in assay [5], 3.2 µg/mL (≈ 11.5 µM); in assay [6] it was 25 µg/mL (≈ 89.5 µM).
With `O=C1C(Sc2ccccc2)=C(Sc2ccccc2)C(=O)c2cnncc21`, the MIC is 100 µg/mL (≈ 266 µM) in assay [1]; greater than 100 µg/mL in assay [1] (setting [7]); 6.3 µg/mL (≈ 16.7 µM) in assay [2]; 6.3 µg/mL (≈ 16.7 µM) in assay [2] (setting [8]); greater than 100 µg/mL in assay [4]; 100 µg/mL (≈ 266 µM) in assay [4] (setting [9]).
On to `O=C1C(Cl)=C(Nc2cccc(Cl)c2)C(=O)c2cnncc21`, for which the MIC came out at 25 µg/mL (≈ 78.1 µM) in assay [1] (setting [7]); 12.5 µg/mL (≈ 39 µM) in assay [2] (setting [8]); 25 µg/mL (≈ 78.1 µM) in assay [3]; 25 µg/mL (≈ 78.1 µM) in assay [4] (setting [9]); 25 µg/mL (≈ 78.1 µM) in assay [5]; 3.2 µg/mL (≈ 10 µM) in assay [6].
Turning to `Cc1ccc(NC2=CC(=O)c3cnncc3C2=O)cc1`, the MIC worked out at 25 µg/mL (≈ 94.2 µM) in assay [1] (setting [7]); 50 µg/mL (≈ 188 µM) in assay [2] (setting [8]); 12.5 µg/mL (≈ 47.1 µM) in assay [3]; 12.5 µg/mL (≈ 47.1 µM) in assay [4] (setting [9]); 6.3 µg/mL (≈ 23.7 µM) in assay [5]; 6.3 µg/mL (≈ 23.7 µM) in assay [6].
As to `O=C1C(Sc2ccc(O)cc2)=C(Sc2ccc(O)cc2)C(=O)c2cnncc21`, the MIC in assay [1] (setting [7]) is greater than 100 µg/mL; in assay [2] (setting [8]), greater than 100 µg/mL; in assay [3], greater than 100 µg/mL; in assay [4] (setting [9]), greater than 100 µg/mL; in assay [5] it was 100 µg/mL (≈ 245 µM); in assay [6] it was greater than 100 µg/mL.
Regarding `Cc1cccc(SC2=C(Sc3cccc(C)c3)C(=O)c3cnncc3C2=O)c1`, the MIC is 100 µg/mL (≈ 247 µM) in assay [1] (setting [7]); 6.3 µg/mL (≈ 15.6 µM) in assay [2] (setting [8]); greater than 100 µg/mL in assay [3]; 50 µg/mL (≈ 124 µM) in assay [4] (setting [9]); 12.5 µg/mL (≈ 30.9 µM) in assay [5]; greater than 100 µg/mL in assay [6].
Consider `Nc1ccc(N)c2cnncc12`, for which the MIC was 100 µg/mL (≈ 624 µM) in assay [1] (setting [7]); greater than 100 µg/mL in assay [2] (setting [8]); 100 µg/mL (≈ 624 µM) in assay [3]; greater than 100 µg/mL in assay [4] (setting [9]); greater than 100 µg/mL in assay [5]; 6.3 µg/mL (≈ 39.3 µM) in assay [6].
In the case of `O=C1C=C(Nc2ccc(F)cc2)C(=O)c2cnncc21`, the MIC in assay [1] (setting [7]) was 100 µg/mL (≈ 371 µM); in assay [2] (setting [8]), greater than 100 µg/mL; in assay [3], 25 µg/mL (≈ 92.9 µM); in assay [4] (setting [9]), 25 µg/mL (≈ 92.9 µM); in assay [5] it was 50 µg/mL (≈ 186 µM); in assay [6], 6.3 µg/mL (≈ 23.4 µM).
Turning to `COc1ccc(NC2=CC(=O)c3cnncc3C2=O)cc1`, the MIC is 25 µg/mL (≈ 88.9 µM) in assay [1] (setting [7]); 25 µg/mL (≈ 88.9 µM) in assay [2] (setting [8]); 12.5 µg/mL (≈ 44.4 µM) in assay [3]; 6.3 µg/mL (≈ 22.4 µM) in assay [4] (setting [9]); 12.5 µg/mL (≈ 44.4 µM) in assay [5]; 6.3 µg/mL (≈ 22.4 µM) in assay [6].
Turning to `O=C1C(Cl)=C(Nc2ccc(Br)cc2)C(=O)c2cnncc21`, the MIC in assay [1] (setting [7]) is 25 µg/mL (≈ 68.6 µM); in assay [2] (setting [8]), 25 µg/mL (≈ 68.6 µM); in assay [3] it was 25 µg/mL (≈ 68.6 µM); in assay [4] (setting [9]), 12.5 µg/mL (≈ 34.3 µM); in assay [5], 25 µg/mL (≈ 68.6 µM); in assay [6], 3.2 µg/mL (≈ 8.78 µM).
For `O=C1C(Sc2cccc(Cl)c2)=C(Sc2cccc(Cl)c2)C(=O)c2cnncc21`, the MIC is greater than 100 µg/mL in assay [1] (setting [7]); 6.3 µg/mL (≈ 14.1 µM) in assay [2] (setting [8]); greater than 100 µg/mL in assay [3]; 100 µg/mL (≈ 225 µM) in assay [4] (setting [9]); 12.5 µg/mL (≈ 28.1 µM) in assay [5]; greater than 100 µg/mL in assay [6].
`Nc1nc(=O)[nH]cc1F` [FLUCYTOSINE]: the MIC in assay [1] (setting [7]) came to 100 µg/mL (≈ 775 µM); in assay [2] (setting [8]), 25 µg/mL (≈ 194 µM); in assay [3] it was 50 µg/mL (≈ 387 µM); in assay [4] (setting [9]), 12.5 µg/mL (≈ 96.8 µM); in assay [5] it was 25 µg/mL (≈ 194 µM); in assay [6], 12.5 µg/mL (≈ 96.8 µM).
